What was measured:
[1] = test system: Male white mice of the CD-1 strain; assay: Pharmacodynamic profile and general toxicity, Part B (signs, mortality, LD50); format: in vivo; settings: Table 10
Description: Male white mice of the CD-1 strain (Charles River, UK), within the body weight range of 18-26 g, were used throughout this study, carried out on AF123, AF125 and AF125(N).
Furthermore, these initial trials clearly established that the major signs of reactions to treatment consisted primarily of signs characteristic for potential cholinomimetic activity of the test material, such as tremors, salivation, lacrimation, diarrhea, analgesia, hypothermia and vasodilation. […]

[2] = Chemical stability (thermal, aqueous solution); format: physicochemical; settings: free base, monitored with 1H-NMR
Description: Most of these compounds are relatively stable. […] Its chemical behaviour resembles that of known 2-oxazoline derivatives. […] The formation of the decomposition products can be monitored with ^1H-NMR by inspection at two regions δ 3.3-3.5 (appearance of two doublets) and 1.9-2.0 ppm (appearance of two additional singlets).
The expected decomposition pattern (when e.g., X is O and Y is N) involves opening of the oxazoline ring to form both amide and ester as shown in Scheme E, in which the quinuclidine-derived compounds are depicted illustratively. The formation of two new singlets at δ 1.9-2.0 ppm as expected for R = Me of these two structures are in agreement with this supposition. [drawing 32]
Ring opening is much faster in the presence of dilute hydrochloric acid. […] The tendency to decomposition of such salts complicates the optical separation of compounds such as AF125 and AF123. However, this problem can be overcome by using the method described for the optical separation of the enantiomers of AF125, or alternatively the amino-alcohols such as 3-aminomethylquinuclidin-3-ol can be resolved and the separated enantiomers can then be cyclized using an ester or imidate as already described. In yet another alternative the N-acyl derivatives of (e.g.) 3-aminomethylquinuclidin-3-ol can be resolved and the separated enantiomers can then be cyclized per se as shown in Scheme K: [drawing 33] […]

M2 muscarinic receptors = biological target: T1, M2 muscarinic receptors (Rattus norvegicus, UniProt P10980); assay: Displacement of 3H-QNB from rat cerebellum, 50 mM phosphate buffer; format: binding; settings: cerebellum
T1 construct: displacing from rat brain homogenates, cerebellum or frontal cortex; from tissue; host or cells: rat cerebellum homogenates
T1 sequence (P10980 1-466): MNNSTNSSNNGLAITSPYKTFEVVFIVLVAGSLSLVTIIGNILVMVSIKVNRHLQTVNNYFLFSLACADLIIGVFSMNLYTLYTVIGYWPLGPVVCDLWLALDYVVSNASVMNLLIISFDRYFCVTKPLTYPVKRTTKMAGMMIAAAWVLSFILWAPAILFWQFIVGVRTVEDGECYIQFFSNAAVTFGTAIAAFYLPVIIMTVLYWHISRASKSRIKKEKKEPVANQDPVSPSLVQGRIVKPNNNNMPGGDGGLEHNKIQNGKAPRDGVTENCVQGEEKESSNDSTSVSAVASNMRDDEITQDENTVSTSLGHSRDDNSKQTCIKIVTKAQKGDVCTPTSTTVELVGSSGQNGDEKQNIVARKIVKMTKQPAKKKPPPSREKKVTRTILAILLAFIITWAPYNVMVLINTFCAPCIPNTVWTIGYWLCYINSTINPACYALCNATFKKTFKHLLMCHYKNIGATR

M1 muscarinic receptor [3] = biological target: T2, M1 muscarinic receptor (Rattus norvegicus, UniProt P08482); assay: Displacement of 3H-PZ from rat cerebral cortex, 10 mM phosphate buffer; format: binding; design: from tissue; host or cells: rat cerebral cortex homogenates; settings: for % H / Ki: cortex, Table 4; for Ki: read-out: 3H-PZ-Binding KH (a)
T2 sequence (P08482 1-460): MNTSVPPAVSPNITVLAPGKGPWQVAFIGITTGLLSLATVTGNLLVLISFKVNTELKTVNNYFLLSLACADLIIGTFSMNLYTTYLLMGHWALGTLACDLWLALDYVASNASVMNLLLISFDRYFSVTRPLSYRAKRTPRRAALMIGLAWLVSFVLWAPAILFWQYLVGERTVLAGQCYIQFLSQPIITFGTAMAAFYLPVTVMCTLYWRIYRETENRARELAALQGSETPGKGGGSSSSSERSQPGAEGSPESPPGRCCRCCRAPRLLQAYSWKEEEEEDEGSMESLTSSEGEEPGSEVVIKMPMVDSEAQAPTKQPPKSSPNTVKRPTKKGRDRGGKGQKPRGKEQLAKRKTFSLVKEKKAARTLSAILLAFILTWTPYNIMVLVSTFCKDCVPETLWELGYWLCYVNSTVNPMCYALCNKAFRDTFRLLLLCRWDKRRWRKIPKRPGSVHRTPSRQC

M1 muscarinic receptor [4] = biological target: T2, M1 muscarinic receptor; assay: Displacement of 3H-QNB from rat cerebral cortex, 50 mM phosphate buffer; format: binding; settings: cortex, Table 5
M1 muscarinic receptor [5] = biological target: T2, M1 muscarinic receptor; assay: Displacement of 3H-PZ from cortical binding sites, Tris/Mn buffer, with and without GppNHp; design: from tissue; host or cells: rat cerebral cortex homogenates
Description: The binding of agonists to M1 muscarinic receptors and the effect of guanylyl imidophosphate (GppNHp). Agonists are known to be coupled with guanine nucleotide binding proteins (G proteins).
Non-hydrolyzable guanine nucleotides such as GppNHp dissociate the G protein from the receptor and decrease the affinity of the receptor for agonists but not for antagonists. […] Molec.
Under these conditions agonists of high efficacy ("full agonists") bind directly to the M1 receptor subtype with two affinities. […] The ratio of low and high affinities (KL/KH) of the M1 receptor may predict the relative efficacies of agonists to activate putative M1 receptor-mediated second messenger systems.
KH, KL, %H and %L are the apparent inhibition constants of the tested ligands for the high and low affinity sites, respectively. G is GppNHp (guanylyl imidodiphosphate), and was used in 0.1 mM concentration. Displacement of ^3H-PZ from cortical binding sites was performed in Tris/Mn buffer (pH 7.4) for one hour at 25°C; the buffer included 1 mM EDTA and 2mM Mn^++ ions. […] The binding data were analyzed using a GraphPAD program and were fitted to one or two components. Values are means from 1-3 experiments carried out in triplicates.

[6] = biological target: T3, m4 subtype receptors (PC12 cells) (Rattus norvegicus, UniProt P08485); assay: Inhibition of adenylate cyclase activity in PC12 cells; format: cell-based
T3 construct: endogenous in cells; host or cells: PC12 cells
T3 sequence (P08485 1-478): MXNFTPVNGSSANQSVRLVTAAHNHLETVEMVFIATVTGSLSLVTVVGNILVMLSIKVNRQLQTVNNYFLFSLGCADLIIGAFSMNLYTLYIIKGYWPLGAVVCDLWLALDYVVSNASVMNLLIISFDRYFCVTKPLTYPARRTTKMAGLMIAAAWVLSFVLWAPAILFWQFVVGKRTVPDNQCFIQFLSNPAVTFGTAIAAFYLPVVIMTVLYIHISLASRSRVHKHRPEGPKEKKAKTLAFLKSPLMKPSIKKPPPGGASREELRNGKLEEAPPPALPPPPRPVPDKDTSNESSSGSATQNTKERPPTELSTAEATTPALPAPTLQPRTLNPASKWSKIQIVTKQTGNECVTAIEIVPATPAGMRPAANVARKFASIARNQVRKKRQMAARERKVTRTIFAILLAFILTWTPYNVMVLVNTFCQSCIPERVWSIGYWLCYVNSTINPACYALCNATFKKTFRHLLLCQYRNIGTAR
Protocol: (§1) The new compounds AF150, AF151, AF150(S) and AF125 were assayed for their ability to stimulate PI in CHO cells transfected with m1 and m3 receptors, respectively (Buck and Fraser, loc cit), and in cultured human neuroblastoma cells, line SK-N-SH, which express mainly the m3 subtype, but not the m1 subtype (Pinkas-Kramarski et al, Neurosci. Lett. 188: 335-340, 1990; Luthin et al Mol. Pharmacol. 34: 327-333, 1988). These compounds were also assayed on cultured PC12 cells which express mainly m4 subtype receptors and are coupled to inhibition of AC activity (Pinkas-Kramarski et al, loc cit).
(§2) Stimulation of PI breakdown was assayed using the method described by Stein et al (EMBO J. 7: 3031-3035, 1988), and modulation of AC activity was assayed by the method of Stein et al, loc cit and Pinkas-Kramarski et al (FEBS Lett., 239: 174-178, 1988). […]

m3 receptors = m3 receptors (Rattus norvegicus, UniProt P08483); assay: PI hydrolysis in CHO cells transfected with m3 receptors; format: cell-based; settings: CHO m3; tested at 1mM
m3 receptors, sequence (P08483 whole entry): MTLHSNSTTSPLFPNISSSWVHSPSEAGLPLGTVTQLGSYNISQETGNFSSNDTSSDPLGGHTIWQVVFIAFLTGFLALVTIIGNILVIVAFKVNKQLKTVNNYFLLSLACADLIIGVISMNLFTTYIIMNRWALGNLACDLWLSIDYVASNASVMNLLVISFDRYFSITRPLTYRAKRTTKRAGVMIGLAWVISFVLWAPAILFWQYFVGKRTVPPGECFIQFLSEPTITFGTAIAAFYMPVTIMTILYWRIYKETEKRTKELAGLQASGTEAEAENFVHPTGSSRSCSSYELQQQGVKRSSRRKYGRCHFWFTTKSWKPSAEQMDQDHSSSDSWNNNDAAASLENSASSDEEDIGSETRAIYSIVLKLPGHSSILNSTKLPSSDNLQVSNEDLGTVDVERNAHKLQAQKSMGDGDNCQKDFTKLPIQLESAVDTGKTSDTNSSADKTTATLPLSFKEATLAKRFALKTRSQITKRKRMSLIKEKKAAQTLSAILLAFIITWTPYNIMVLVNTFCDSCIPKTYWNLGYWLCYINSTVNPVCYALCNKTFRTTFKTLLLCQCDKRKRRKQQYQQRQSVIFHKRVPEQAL
Protocol: as §1, §2

[7] = test system: CA1 neurons in the hippocampal slice; assay: Electrophysiological evaluation in rat hippocampal slices
Protocol: In general terms the effects of microdrops of AF150, ACh and PZ were applied to rat hippocampal cells recorded intracellularly. The exact concentrations of the drug at the receptor sites are not known, using this method. However, this method has an advantage over the perfusion method, in that it gives a more correct picture from the electrophysiological point of view (Segal, loc cit).
Intracellular responses to AF150 of CA1 neurons in the hippocampal slice were recorded, using the method of Segal. Small hyperpolarizing current pulses (current traces not shown) were alternated with stimulation of the Schaffer-commissural afferents producing postsynaptic potentials.

muscarinic receptors = assay: (-)3H-QNB binding to rat cerebral cortex homogenates with and without Cu++ treatment
m1 receptors = biological target: T4, m1 receptors (Rattus norvegicus, UniProt P08482); assay: PI hydrolysis in CHO cells transfected with m1 receptors; format: cell-based
T4 construct: expressed in transfected cells; host or cells: CHO cells
T4 sequence (P08482 1-460): T2 sequence (P08482 1-460)

[8] = biological target: T5, m3 subtype (SK-N-SH cells) (Homo sapiens, UniProt P20309); assay: PI hydrolysis in SK-N-SH neuroblastoma cells; format: cell-based
T5 construct: endogenous in cells; host or cells: SK-N-SH human neuroblastoma cells
T5 sequence (P20309 whole entry): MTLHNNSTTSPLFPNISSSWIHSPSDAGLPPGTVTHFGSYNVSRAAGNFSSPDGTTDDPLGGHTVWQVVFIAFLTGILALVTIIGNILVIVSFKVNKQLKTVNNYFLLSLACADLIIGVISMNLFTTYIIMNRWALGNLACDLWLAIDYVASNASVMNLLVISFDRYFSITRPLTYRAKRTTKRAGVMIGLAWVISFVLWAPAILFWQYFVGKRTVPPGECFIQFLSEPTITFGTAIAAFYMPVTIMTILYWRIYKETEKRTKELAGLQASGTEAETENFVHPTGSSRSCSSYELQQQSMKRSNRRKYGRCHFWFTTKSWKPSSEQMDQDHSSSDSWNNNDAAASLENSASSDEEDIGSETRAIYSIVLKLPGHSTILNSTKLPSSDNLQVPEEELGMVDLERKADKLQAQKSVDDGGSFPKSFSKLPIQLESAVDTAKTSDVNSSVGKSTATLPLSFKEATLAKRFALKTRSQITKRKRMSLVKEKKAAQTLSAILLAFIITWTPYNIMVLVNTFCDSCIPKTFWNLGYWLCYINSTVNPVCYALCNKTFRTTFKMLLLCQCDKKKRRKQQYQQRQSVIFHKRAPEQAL
Protocol: as §1, §2

[9] = 400 mg/kg p.os, animals affected/treated

Structure (SMILES): CCC1=NCC2(CN3CCC2CC3)O1 (racemic) [AF123, 2-Ethyl spiro(1,3 oxazoline 5,3')quinuclidine]
- Mortality no. ([1]; 50 mg/kg i.v.): 0/5
- Mortality no. ([1]; 100 mg/kg i.v.): 5/5
- Mortality time ([1]; 100 mg/kg i.v.): 1 min
- Convulsive seizure (Con) ([1]; 100 mg/kg i.v., animals affected/treated): 5/5
- Mortality no. ([1]; 200 mg/kg i.v.): 5/5
- Mortality time ([1]; 200 mg/kg i.v.): immed
- Mortality no. ([1]; 200 mg/kg p.os): 0/5
- Mortality time ([1]; 200 mg/kg p.os): 3 min
- Tremors (Tre) ([1]; 200 mg/kg p.os, animals affected/treated): 4/5
- Mortality no. ([1]; 400 mg/kg p.os): 5/5
- Mortality time ([1]; 400 mg/kg p.os): 3 min
- Convulsive seizure (Con) [1, 9]: 5/5
- Respiratory distress (Res) [1, 9]: 5/5
- Tremors (Tre) [1, 9]: 5/5
- decomposition in aqueous solution [2]: same pattern of decomposition
- Ki (M2 muscarinic receptors; 3H-QNB-Binding KH (c), Table 4): 3900 nM
- % H (M2 muscarinic receptors; Table 4): 100%
- RATIOS c:a (M1 muscarinic receptor [3]; KH cerebellum (3H-QNB) : KH cortex (3H-PZ)): 3.0
- % H (M1 muscarinic receptor [3]): 100%
- Ki (M1 muscarinic receptor [3]): 1300 nM

Structure (SMILES): CC1OC2(CS1)CN1CCC2CC1 (stereo not drawn) [AF102B, cis-2-methylspiro(1,3-oxathiolane-5',3)quinuclidine, reference compound]
- % H1 (M1 muscarinic receptor [4]): 100%
- Ki (M1 muscarinic receptor [5]; +G (0.1 mM GppNHp), read-out: KH): 700 to 1000 nM
- Ki (M1 muscarinic receptor [5]; +G (0.1 mM GppNHp), read-out: KL): 700 to 1000 nM
- Ki (M1 muscarinic receptor [5]; -G (without GppNHp), read-out: KH): 700 to 1000 nM
- Ki (M1 muscarinic receptor [5]; -G, read-out: KL): 700 to 1000 nM
- AC, % of carbachol effect ([6]; PC12 m4): 40%
- effective concentration which induces the effect ([6]; PC12 m4, AC activity, footnote b): 0.1^b µM
- AC (adenylate cyclase activity) ([6]; PC12 m4, tested at 1mM): +
- PI (phosphoinositides hydrolysis) (m3 receptors): -
- Ki (M2 muscarinic receptors; 3H-QNB-Binding KH2 (c), Table 5): 5900 nM
- Ki (M2 muscarinic receptors; 3H-QNB-Binding KH (c), Table 4): 6000 nM
- % H (M2 muscarinic receptors; Table 4): 100%
- % H2 (M2 muscarinic receptors; Table 5): 100%
- slow AHP (Ca++-dependent K+ conductance) ([7]; applied topically by microdrops): block the slow AHP
- depolarization ([7]; applied topically by microdrops (AF150: 100 µM)): not shown in the case of AF102B
- %H (% of high affinity state) (muscarinic receptors; with Cu++ pretreatment (100 µM, 30 minutes)): 26%
- %H (% of high affinity state) (muscarinic receptors; with Cu++ pretreatment (100 µM, 30 minutes), listed as 4): 26±5%
- %H (% of high affinity state) (muscarinic receptors; without pretreatment): 0%
- PI, % of carbachol effect (m1 receptors; CHO m1): 20%
- effective concentration which induces the effect (m1 receptors; CHO m1, PI hydrolysis, footnote b): 30^b µM
- PI (phosphoinositides hydrolysis) (m1 receptors; CHO m1, tested at 1mM): +
- block of oxotremorine-M-induced phosphoinositide hydrolysis [8]: completely blocked
- PI (phosphoinositides hydrolysis) ([8]; SK-N-SH m3, tested at 1mM): -
- inhibition at 1000 µM ([8]; SK-N-SH, read-out: inhibition of the oxotremorine-M signal): 34%
- stimulation of phosphoinositide hydrolysis ([8]; even at 1 mM): failed to stimulate phosphoinositide hydrolysis
- % H (M1 muscarinic receptor [3]): 100%
- Ki (M1 muscarinic receptor [3]): 1000 nM

Source: EP0452101B1, “Spiro bridged and unbridged heterocyclic compounds” (ISRAEL INSTITUTE FOR BIOLOGICAL RESEARCH, priority 1990, dated 1991)
